Results on 8 molecules are retold here after publication PMC2699545 (Molecular genetics and metabolism, 2009).

The IC50 is the concentration needed to halve the response being measured. High values mean weaker potency in that assay, low ones greater potency in that assay. As usually defined, the Km is the concentration of substrate that gives half-maximal velocity.

In experiment [1] the target is T1, N370 (wild-type) GCase (Homo sapiens, UniProt P04062).
T1 sequence (P04062 40-536): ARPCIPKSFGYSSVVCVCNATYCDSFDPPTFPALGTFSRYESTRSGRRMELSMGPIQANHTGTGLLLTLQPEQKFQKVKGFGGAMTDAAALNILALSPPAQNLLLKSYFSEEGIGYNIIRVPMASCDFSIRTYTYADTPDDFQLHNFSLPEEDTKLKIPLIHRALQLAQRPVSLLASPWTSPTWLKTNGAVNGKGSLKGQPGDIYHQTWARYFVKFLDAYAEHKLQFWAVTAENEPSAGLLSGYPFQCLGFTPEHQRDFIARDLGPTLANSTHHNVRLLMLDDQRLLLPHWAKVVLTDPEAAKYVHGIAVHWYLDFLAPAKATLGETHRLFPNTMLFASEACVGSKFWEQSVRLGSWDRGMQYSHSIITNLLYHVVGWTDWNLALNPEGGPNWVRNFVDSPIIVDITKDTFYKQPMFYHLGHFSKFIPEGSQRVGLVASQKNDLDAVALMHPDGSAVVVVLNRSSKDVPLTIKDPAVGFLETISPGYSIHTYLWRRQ
The experiment is described as follows: GCase inhibition by active site-directed inhibitors, 4MU-Glc substrate. Type of experiment: biochemical.

Experiment [2] concerns the target T2, N370E GCase (Homo sapiens, UniProt P04062, N409E).
T2 sequence (P04062 40-536 N409E): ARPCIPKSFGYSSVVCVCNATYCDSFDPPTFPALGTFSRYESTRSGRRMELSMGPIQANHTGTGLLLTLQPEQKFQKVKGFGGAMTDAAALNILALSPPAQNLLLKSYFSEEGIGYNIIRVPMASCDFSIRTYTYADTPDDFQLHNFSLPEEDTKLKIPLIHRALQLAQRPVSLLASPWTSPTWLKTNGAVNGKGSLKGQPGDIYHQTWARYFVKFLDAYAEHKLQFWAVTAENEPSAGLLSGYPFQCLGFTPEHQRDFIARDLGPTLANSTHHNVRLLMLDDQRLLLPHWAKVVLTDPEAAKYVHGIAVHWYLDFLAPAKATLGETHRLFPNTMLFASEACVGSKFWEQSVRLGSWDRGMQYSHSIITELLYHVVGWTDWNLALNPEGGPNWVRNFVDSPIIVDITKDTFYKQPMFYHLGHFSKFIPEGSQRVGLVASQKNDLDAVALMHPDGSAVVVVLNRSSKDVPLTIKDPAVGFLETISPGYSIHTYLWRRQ
Described as above. The class given is biochemical.

The target of experiment [3] is T3, N370D GCase (Homo sapiens, UniProt P04062, N409D).
T3 sequence (P04062 40-536 N409D): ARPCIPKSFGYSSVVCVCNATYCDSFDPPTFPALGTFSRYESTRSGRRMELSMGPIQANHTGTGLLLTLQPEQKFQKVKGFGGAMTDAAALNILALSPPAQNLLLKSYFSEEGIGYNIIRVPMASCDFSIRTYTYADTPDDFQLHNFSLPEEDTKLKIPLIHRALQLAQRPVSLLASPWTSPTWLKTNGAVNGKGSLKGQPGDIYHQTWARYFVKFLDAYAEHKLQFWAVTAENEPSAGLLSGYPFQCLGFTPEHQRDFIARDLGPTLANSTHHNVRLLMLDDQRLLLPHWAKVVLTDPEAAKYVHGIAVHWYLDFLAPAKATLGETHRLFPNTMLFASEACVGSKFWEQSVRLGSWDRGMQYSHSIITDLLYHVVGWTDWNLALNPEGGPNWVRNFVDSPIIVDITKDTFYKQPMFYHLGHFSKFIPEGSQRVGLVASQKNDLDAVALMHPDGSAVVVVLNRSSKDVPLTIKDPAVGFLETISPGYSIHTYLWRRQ
Described as above. The class given is biochemical.

Experiment [4] concerns the target T4, N370Q GCase (Homo sapiens, UniProt P04062, N409Q).
T4 sequence (P04062 40-536 N409Q): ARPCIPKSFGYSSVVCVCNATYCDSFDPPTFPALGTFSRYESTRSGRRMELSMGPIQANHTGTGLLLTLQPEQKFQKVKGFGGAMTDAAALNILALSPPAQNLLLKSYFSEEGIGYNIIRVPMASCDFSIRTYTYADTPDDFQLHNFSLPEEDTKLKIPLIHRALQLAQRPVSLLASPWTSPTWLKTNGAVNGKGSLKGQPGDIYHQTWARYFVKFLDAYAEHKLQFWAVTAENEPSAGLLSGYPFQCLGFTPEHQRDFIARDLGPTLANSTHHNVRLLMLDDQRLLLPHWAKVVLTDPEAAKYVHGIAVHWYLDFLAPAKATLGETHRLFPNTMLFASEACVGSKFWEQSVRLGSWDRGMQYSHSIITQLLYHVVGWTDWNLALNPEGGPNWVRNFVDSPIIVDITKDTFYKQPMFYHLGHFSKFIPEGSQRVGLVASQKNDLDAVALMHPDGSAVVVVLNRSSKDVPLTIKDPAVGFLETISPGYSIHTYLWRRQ
The experiment is described as above. Type of experiment: biochemical.

In experiment [5] the target is T5, N370S GCase (Homo sapiens, UniProt P04062, N409S).
T5 sequence (P04062 40-536 N409S): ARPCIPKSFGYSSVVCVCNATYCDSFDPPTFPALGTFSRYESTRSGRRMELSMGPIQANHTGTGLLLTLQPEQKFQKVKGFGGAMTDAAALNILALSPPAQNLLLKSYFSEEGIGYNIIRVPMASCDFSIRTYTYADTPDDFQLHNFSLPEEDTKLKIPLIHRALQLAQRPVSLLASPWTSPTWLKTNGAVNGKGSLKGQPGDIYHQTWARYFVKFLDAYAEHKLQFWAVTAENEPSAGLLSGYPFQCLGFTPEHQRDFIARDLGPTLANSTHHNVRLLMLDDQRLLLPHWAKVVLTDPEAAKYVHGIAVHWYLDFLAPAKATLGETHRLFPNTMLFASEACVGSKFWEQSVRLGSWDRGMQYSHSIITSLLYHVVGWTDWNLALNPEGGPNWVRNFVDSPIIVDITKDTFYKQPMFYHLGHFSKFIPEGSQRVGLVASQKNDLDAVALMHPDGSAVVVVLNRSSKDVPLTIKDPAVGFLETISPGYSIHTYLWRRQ
The experiment is described as above. Type of experiment: biochemical.

In experiment [6] the target is T6, E235G GCase (Homo sapiens, UniProt P04062, E274G).
T6 sequence (P04062 40-536 E274G): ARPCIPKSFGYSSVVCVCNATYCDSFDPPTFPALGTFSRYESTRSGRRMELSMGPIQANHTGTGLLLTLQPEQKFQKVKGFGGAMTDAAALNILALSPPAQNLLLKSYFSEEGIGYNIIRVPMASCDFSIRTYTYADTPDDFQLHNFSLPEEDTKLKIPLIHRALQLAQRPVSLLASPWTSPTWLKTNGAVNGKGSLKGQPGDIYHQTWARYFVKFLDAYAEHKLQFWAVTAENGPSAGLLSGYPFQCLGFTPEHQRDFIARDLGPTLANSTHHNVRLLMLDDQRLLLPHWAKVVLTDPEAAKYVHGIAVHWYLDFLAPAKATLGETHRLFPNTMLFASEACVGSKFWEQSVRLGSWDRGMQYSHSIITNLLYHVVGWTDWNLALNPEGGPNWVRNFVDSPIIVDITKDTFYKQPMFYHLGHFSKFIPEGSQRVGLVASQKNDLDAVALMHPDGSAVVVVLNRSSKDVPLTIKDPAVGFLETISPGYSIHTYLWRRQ
In words: E235G hydrolysis of alternative substrates, with or without azide. The class given is biochemical. Particulars: for E235G activity toward substrate compared to wild-type enzyme: TC (4.25 mM) as activator, no azide.

Experiment [7] deals with all active enzymes (wild-type and mutant GCases). The experiment is described as follows: Km for 4MU-Glc from Lineweaver-Burk plots. Type of experiment: biochemical, human.
Experiment [8] relates to N370, N370D, N370E and N370S enzymes. In words: Km for DNPG. The class given is biochemical, human. Particulars: same for all the mutants (Fig. 4 legend).
For experiment [9], the target named is T5, N370S GCase. The experiment is described as follows: Enzyme activation by TC or saposin C.
Experiment [10] deals with T1, N370 (wild-type) GCase. In words: Enzyme activation by TC or saposin C.
The target of experiment [11] is T2, N370E GCase. In words: Enzyme activation by TC or saposin C.
Experiment [12] addresses T3, N370D GCase. In words: Enzyme activation by TC or saposin C.
Experiment [13] has as its target T4, N370Q GCase. The experiment is described as follows: Enzyme activation by TC or saposin C.
Experiment [14] addresses wild-type GCase (Homo sapiens, UniProt P04062). Particulars: azide at 1:4 molar ratio enzyme to azide; DNPG.
The mark [15] stands for this setting: TC 0 to 8 mM, Triton X-100 4 mM, pH 5.6.
[16] abbreviates: in combination with 0.5 μM BPS, pH 5.5.

As for `O[C@H]1[C@H](O)[C@@H](O)[C@@H]2O[C@@H]2[C@@H]1O` (racemic) [Conduritol B Epoxide, conduritol B epoxide], the IC50 was 73 ± 3 µM in experiment [1]; 78 ± 4 µM in experiment [2]; 72 ± 2 µM in [3]; 75 ± 2.5 µM in [4]; 251 ± 29 µM in [5].

With `Cc1cc(=O)oc2cc(O[C@@H]3O[C@H](CO)[C@@H](O)[C@H](O)[C@H]3O)ccc12` [4MU-Glc, 4-methylumbelliferyl-β-D-glucoside], the “E235G activity toward substrate compared to wild-type enzyme” value in [6] is reported as “less than 0.05%”. For the same molecule, in experiment [7], the Km was 2000 ± 500 µM.

With `O=[N+]([O-])c1ccc(O[C@@H]2O[C@H](CO)[C@@H](O)[C@H](O)[C@H]2O)c([N+](=O)[O-])c1` [DNPG, 2,4-dinitrophenyl-β-D-glucoside], the Km in [8] turned out to be 108 ± 17 µM. Further, the “E235G activity toward substrate compared to wild-type enzyme” value in [6] is recorded as ~ 2%.

With `C[C@H](CCC(=O)NCCS(=O)(=O)O)[C@H]1CC[C@H]2[C@@H]3[C@H](O)C[C@@H]4C[C@H](O)CC[C@]4(C)[C@H]3C[C@H](O)[C@]12C` [TC, Sodium taurocholate], the “fold activation by TC” value in experiment [9] (TC ≥ 4 mM, Triton X-100 4 mM, pH 5.6) was ~ 35 fold; in experiment [10] (wild-type, TC 0 to 8 mM, Triton X-100 4 mM, pH 5.6) it was ~ 25 fold; in [11] (setting [15]), ~ 8 fold; in [12] (setting [15]), ~ 22 fold; in experiment [13] (setting [15]), ~ 1.5 fold.

Turning to `[N-]=[N+]=[N-].[Na+]` [azide, sodium azide], in experiment [14], the “effect of azide on wild-type enzyme activity” value is recorded as “no effect”. For the same molecule, in [6] (10 μM azide (Fig. 6A)), the “hydrolytic rate of 2,4-DNP-β-glucose by E235G relative to wild-type” value is reported as 95%. Also, the “hydrolytic rate of DNPG by E235G relative to wild-type enzyme” value in experiment [6] (1:4 molar ratio of enzyme to azide) is ~ 90%.

For `O=[N+]([O-])c1ccccc1O[C@@H]1O[C@H](CO)[C@H](O)[C@H](O)[C@H]1O` [o-NPG, o-nitrophenyl-β-glucose], in [6], the “E235G activity toward substrate compared to wild-type enzyme” value is “less than 0.05%”.

In the case of `O=[N+]([O-])c1ccc(O[C@@H]2O[C@H](CO)[C@H](O)[C@H](O)[C@H]2O)cc1` [p-NPG, p-nitrophenyl-β-glucose], the “E235G activity toward substrate compared to wild-type enzyme” value in experiment [6] is “less than 0.05%”.

B1: saposin C: protein cofactor of GCase for optimal hydrolytic activity (protein, UniProt P07602 311-390, looked up)
Saposin-C: SDVYCEVCEFLVKEVTKLIDNNKTEKEILDAFDKMCSKLPKSLSEECQEVVDTYGSSILSILLEEVSPELVCSMLHLCSG
modifications: Saposin-C
On to B1, for which the “fold enhancement by saposin C” value in experiment [9] (setting [16]) is on record as ~ 2.4 fold; in experiment [10] (N370 (WT), in combination with 0.5 μM BPS, pH 5.5), ~ 3.5 fold; in experiment [11] (setting [16]), 1.8 fold; in experiment [12] (setting [16]) it was 1.8 fold. Moreover, the “enhancement by saposin C” value in [13] (setting [16]) is “no effect”.
